Publication PMC10047683, “A Novel Family of Lysosomotropic Tetracyclic Compounds for Treating Leukemia” (Cancers, 2023)

What was measured:
Format in all cases: cell-based
HL60 = experiment: AraC EC50 in parental and AraC resistant cells; conditions: Homo sapiens
SKM1 = experiment: AraC EC50 in parental and AraC resistant cells; conditions: Homo sapiens
KG1 = experiment: AraC EC50 in parental and AraC resistant cells; conditions: Homo sapiens
[1] = system: intracellular calcium in HL60 cells; experiment: Calcium mobilization assay (Fura2 probe); conditions: 10 µM EDK-87/EDK-88, 50 µM chloroquine
Procedure: 1,000 cells of AML cell lines or 50,000 primary cells (both AML and lin-depleted UCB) were treated at the indicated concentration for 18 h, and cultured in 1 mL of MethoCult H4034 Optimum (StemCell Technologies, Vancouver, BC, Canada).
Colonies were screened based on morphology and cellularity at day 7 (cell lines) […]
Calcium mobilization assay
1 x 10^6 cells per mL were loaded for 30’ at 37 °C with the Fura-2-AM probe (Thermo Fisher) at a final 2 µM concentration in pre-warmed calcium- and magnesium-free Hanks BSA solution. Cells were then washed and resuspended in Hanks BSA solution with calcium and magnesium at 3 x 10^5 cells per mL. In parallel, 50µL of drugs in Hanks BSA solution with calcium and magnesium were added to 96-well black wall clear bottom plates and background fluorescence […]
Cells were then added to the plate
(50µL/well) and fluorescence was acquired at indicated timepoints using a Synergy HT Multi-Detection Microplate Reader (BioTek). For the analysis, all values were subtracted their corresponding background fluorescence, and the ratio 340/380 was calculated. Finally, ratios were normalized to vehicle-treated […]
Semi-Quantitative Real Time PCR

HEK-293T = experiment: Pancancer cell line panel viability (nontumor line); conditions: HEK-293T (nontumor); 10 µM; 48 h
Procedure: (§1) First, 2 × 10^5 (72 h assays in cell lines (Supplementary File S1)), 3 × 10^5 (48 h assays in cell lines) or 7.5 × 10^5 (primary AML, healthy donor buffy coats) cells per mL were cultured in 96-well plates, and all drugs were added at the indicated concentrations. In α-tocopherol experiments, cells were treated with growing concentrations of α-tocopherol and EDK drugs for 48 h. In the NAC and 3MA experiments, treatment was simultaneous with EDK compounds. In glucose deprivation experiments, cells were cultivated with a standard medium (glucose high, 2 g/L), a standard medium without glucose, or a standard medium with galactose (2 g/L) and without glucose. Cell viability was measured via 7-AAD (eBioscience) exclusion and Hoechst33342 (Sigma-Aldrich, St. Louis, MO, USA) positivity staining via flow cytometry, and the cell count was obtained through volume. In the experiments with the primary cells, analyses were performed inside the blast population as detected via blast gates (CD45^low SSC^int). For solid tumor cell lines, viability was analyzed using CellTiter-Glo® Luminescent Cell Viability Assay (Promega).
(§2) AML cell lines and cell cultures
(§3) Cell lines HL-60 (ACC-3), KG-1 (ACC-14), MonoMac-1 (ACC-252), Kasumi-1 […]
(§4) obtained from DSMZ. Cell lines THP-1 (TIB-202TM), MCF-7 (HTB-22™), MDA- […]
(§5) 3216™) and HS-5 (CRL-11882™) were obtained from ATCC. HBL-2 cell line was kindly supplied by Dr. Pérez-Galán (IDIBAPS, Barcelona, Spain). SKM-1 and U937 were kindly provided by Dr. Marcus Buschbeck (IJC, Badalona, Spain). All cell lines were cultured in the conditions indicated by the providers, and were tested for mycoplasma on a monthly basis.
(§6) All drugs were resuspended in H2O (Thermo Fischer Scientific), DMSO (Sigma-Aldrich) or ethanol (VWR) according to manufacturer’s specifications. - tocopherol, 3-methyladenine (3MA), arsenic trioxide (ATO) and N-acetyl-L-cysteine (NAC) were purchased from Sigma Aldrich. Chloroquine diphosphate was purchased from Merck. Etoposide and ionomycin were purchased from […]
(§7) (1 picture or pasted object on this page, not shown here)

HS-5 = experiment: as above; conditions: HS-5 (nontumor); 10 µM; 48 h
Procedure: as §1, §2, §3, §4, §5, §6, §7

HOP62 = experiment: Pancancer cell line panel viability; conditions: 10 µM, 48 h
Procedure: as §1, §2, §3, §4, §5, §6, §7

ACHN = experiment: Pancancer cell line panel viability; conditions: 10 µM, 48 h
Procedure: as §1, §2, §3, §4, §5, §6, §7

A549 = experiment: Pancancer cell line panel viability; conditions: 10 µM, 48 h
Procedure: as §1, §2, §3, §4, §5, §6, §7

OVCAR = experiment: Pancancer cell line panel viability; conditions: 10 µM, 48 h
Procedure: as §1, §2, §3, §4, §5, §6, §7

RAMOS = experiment: Pancancer cell line panel viability; conditions: 10 µM, 48 h
Procedure: as §1, §2, §3, §4, §5, §6, §7

JJN3 = experiment: Pancancer cell line panel viability; conditions: 10 µM, 48 h
Procedure: as §1, §2, §3, §4, §5, §6, §7

Jurkat = experiment: Pancancer cell line panel viability; conditions: 10 µM, 48 h
Procedure: as §1, §2, §3, §4, §5, §6, §7

HBL2 = experiment: Pancancer cell line panel viability; conditions: 10 µM, 48 h
Procedure: as §1, §2, §3, §4, §5, §6, §7

CAKI = experiment: Pancancer cell line panel viability; conditions: 10 µM, 48 h
Procedure: as §1, §2, §3, §4, §5, §6, §7

HCT-15 = experiment: Pancancer cell line panel viability; conditions: 10 µM, 48 h
Procedure: as §1, §2, §3, §4, §5, §6, §7

M14 = experiment: Pancancer cell line panel viability; conditions: 10 µM, 48 h
Procedure: as §1, §2, §3, §4, §5, §6, §7

U266 = experiment: Pancancer cell line panel viability; conditions: 10 µM, 48 h
Procedure: as §1, §2, §3, §4, §5, §6, §7

SR = experiment: Pancancer cell line panel viability; conditions: 10 µM, 48 h
Procedure: as §1, §2, §3, §4, §5, §6, §7

DU-145 = experiment: Pancancer cell line panel viability; conditions: 10 µM, 48 h
Procedure: as §1, §2, §3, §4, §5, §6, §7

PC-3 = experiment: Pancancer cell line panel viability; conditions: 10 µM, 48 h
Procedure: as §1, §2, §3, §4, §5, §6, §7

MCF-7 = experiment: Pancancer cell line panel viability; conditions: 10 µM, 48 h
Procedure: as §1, §2, §3, §4, §5, §6, §7

MDA-MB-231 = experiment: Pancancer cell line panel viability; conditions: 10 µM, 48 h
Procedure: as §1, §2, §3, §4, §5, §6, §7

NCI = experiment: Pancancer cell line panel viability; conditions: 10 µM, 48 h
Procedure: as §1, §2, §3, §4, §5, §6, §7

HCT-116 = experiment: Pancancer cell line panel viability; conditions: 10 µM, 48 h
Procedure: as §1, §2, §3, §4, §5, §6, §7

K562 = experiment: Pancancer cell line panel viability; conditions: 10 µM, 48 h
Procedure: as §1, §2, §3, §4, §5, §6, §7

MDA-MB-435 = experiment: Pancancer cell line panel viability; conditions: 10 µM, 48 h
Procedure: as §1, §2, §3, §4, §5, §6, §7

MOLT4 = experiment: Pancancer cell line panel viability; conditions: 10 µM, 48 h
Procedure: as §1, §2, §3, §4, §5, §6, §7

GRANTA = experiment: Pancancer cell line panel viability; conditions: 10 µM, 48 h
Procedure: as §1, §2, §3, §4, §5, §6, §7

SMILES: Nc1ccn([C@@H]2O[C@H](CO)[C@@H](O)[C@@H]2O)c(=O)n1 [AraC, cytarabine]
- EC50 (HL60; HL-60, HL60 AraCR (AraC resistant)): 0.22 µM
- EC50 (HL60; HL-60, HL60 WT): 0.0298 µM
- EC50 (SKM1; SKM-1, SKM1 AraCR (AraC resistant)): 4.86 µM
- EC50 (SKM1; SKM-1, SKM1 WT): 0.116 µM
- EC50 (KG1; KG-1, KG1 AraCR (AraC resistant)): 0.4 µM
- EC50 (KG1; KG-1, KG1 WT): 0.05 µM

SMILES: CCN(CC)CCCC(C)Nc1ccnc2cc(Cl)ccc12 (centres unmarked) [CHL, chloroquine, reference compound]
- intracellular calcium mobilization [1]: failed to mobilize intracellular calcium
- # Live cells refer to control (HEK-293T): 67%
- # Live cells refer to control (HS-5): 74%
- # Live cells refer to control (HOP62): 55%
- # Live cells refer to control (ACHN): 93%
- # Live cells refer to control (A549): 59%
- # Live cells refer to control (OVCAR): 74%
- # Live cells refer to control (RAMOS): 115%
- # Live cells refer to control (JJN3): 84%
- # Live cells refer to control (Jurkat): 94%
- # Live cells refer to control (HBL2): 62%
- # Live cells refer to control (CAKI): 55%
- # Live cells refer to control (HCT-15): 77%
- # Live cells refer to control (M14): 42%
- # Live cells refer to control (U266): 67%
- # Live cells refer to control (SR): 23%
- # Live cells refer to control (DU-145): 54%
- # Live cells refer to control (PC-3): 63%
- # Live cells refer to control (MCF-7): 54%
- # Live cells refer to control (MDA-MB-231): 50%
- # Live cells refer to control (NCI): 69%
- # Live cells refer to control (HCT-116): 80%
- # Live cells refer to control (K562): 105%
- # Live cells refer to control (MDA-MB-435): 44%
- # Live cells refer to control (MOLT4): 57%
- # Live cells refer to control (GRANTA): 51%
